Assay [1] has as its system diabetic rats. Put plainly: glycemic response to an oral glucose administration after intranasal insulin formulations. Particulars: 10 U/kg insulin intranasal, compared with acetate buffer. Format: in vivo. Here is the method: Diabetic rats which had fasted overnight were used to carry out this experiment. Each of the preparations described in Example 7 was nasally administered to them. After one hour, each group of rats received an oral glucose administration of 2 g per each kg of body mass. The blood sugar was measured in blood from samples collected from the tail vein before the glucose administration and after 10, 20, 30, 60, 90 and 120 minutes.

The test system of assay [2] is streptozotocin diabetic male Wistar rats. Put plainly: blood sugar after intranasal administration of insulin formulations in diabetic rats. Particulars: 10 U/kg insulin intranasal, compared with acetate buffer or with chitosan-PEG nanoparticles. Format: in vivo. Here is the method: To encapsulate insulin in the chitosan nanoparticles, 2.4 mg of insulin were previously dissolved in an NaOH solution to which 1.2 mL of TPP were later added. This mixture was later added to 3 mL of chitosan. After 5 min with magnetic stirring, the preparation was centrifuged at 10,000 g for 40 min. The supernatant was removed and the precipitate was dissolved in a buffer. For its part, the same process was carried out to prepare the chitosan-PEG nanoparticles, but adding 10 mg/mL of PEG 400 to 2 mg/mL of chitosan.
The rats were considered diabetic when the blood sugar concentration was greater than 400 mg/dl after three weeks of the treatment with streptozotocin.
Fasting rats were used to carry out this experiment. They were divided into different groups depending on the formulation which was to be administered to them. […]
To determine the blood glucose levels, blood samples were collected from the tail vein before the nasal administration and every quarter of an hour until 90 minutes were completed. […] The blood glucose level was immediately determined using a glucose analyzer (Prestige from Chronolyss). […]

The values below come from patent US20080095810A1, “Nanoparticles Of Chitosan And Polyethyleneglycol As A System For The Administration Of Biologically-Active Molecules” (Advanced In Vitro Cell Technologies, S.L., priority 2005, published 2008).

With insulin, in assay [1], the “effect on glycemic response to oral glucose (in words)” value was “did not significantly change this result”. Moreover, the “effect on blood sugar (in words)” value in assay [2] is “did not significantly change the previous result”.
